From patent US8987199B2, “Pharmaceutical compositions for intranasal administration for the treatment of neurodegenerative disorders” (Nerve Access, Inc., priority 2011, dated 2015)

Test: Solubility of clioquinol in an aqueous medium
Type: physicochemical
Excerpt: The invention also includes a process to dissolve, stabilize and incorporate clioquinol into an intranasal preparation. Clioquinol dissolves in DMSO. However, it precipitates upon the addition of an aqueous vehicle to that combination. In order to dissolve in an aqueous medium clioquinol requires a pH of approximately 11. A buffering system was developed that maintains the solubility and stability of clioquinol within a pH 7-8 which is compatible with the physiological pH oh the nasal tissue. The buffering system was adjusted to provide a capacity of pH 5-7, within which the preparation will be contained within 7-8 pH. The choice of the buffering system was based on the safety, chemical and physical effects of its ingredients on clioquinol and the other ingredients incorporated in the formula, as well as its effects on the end user of present pharmaceutical composition. The buffer system comprises boric acid and sodium carbonate in certain proportions to produce a protective pH 7-8 at which clioquinol stays physically and chemically stable.

pH required to dissolve in an aqueous medium: approximately 11
Compound: Oc1c(I)cc(Cl)c2cccnc12 [Clioquinol]
